Patent US20130078317A1, “ZINC-CONTAINING COMPOSITIONS FOR THE TREATMENT OF DISEASES, ILLNESSES AND SYNDROMES ASSOCIATED WITH EXPOSURE TO PORE FORMING TOXINS” (priority 2009, published 2013)
“And” between values parts separate entries of the source, which are not always exact repeats. Equal values may be shown once. “Also recorded” adds a separate entry of the source.

Experiments:
[1] = test system: Carybdea alata venom in isolated red blood cells (2% RBC); assay type: cell-based, human
[2] = test system: Chironex fleckeri venom in isolated red blood cells (2% RBC); assay type: cell-based, human
[3] = test system: Chironex fleckeri venom in whole blood; assay type: cell-based, human
[4] = test system: Carybdea alata venom in isolated red blood cells (2% RBC); experiment: Hemolysis induced by Carybdea alata venom in 2% RBC; assay type: cell-based, human
[5] = test system: Chironex fleckeri venom in whole blood; experiment: Hemolysis induced by Chironex fleckeri venom in whole blood; assay type: cell-based, human; details: 5 mM zinc gluconate, compared to untreated cells, FIG. 6
[6] = test system: Chironex fleckeri venom in whole blood; experiment: Cytokine production in whole blood exposed to Chironex fleckeri venom; assay type: cell-based, human; details: CF venom, 5 mM zinc gluconate, FIG. 7
[7] = test system: Chironex fleckeri venom in whole blood; experiment: Catecholamine and histamine response in whole blood exposed to Chironex fleckeri venom; assay type: cell-based, human; details: CF venom, 5 mM zinc gluconate, FIG. 8
Chironex fleckeri venom = experiment: Mouse envenomation model with echocardiography/electrocardiography, survival, plasma hemoglobin and potassium (Example 6); assay type: in vivo
cubozoan porin [8] = details: pig, in vivo
cubozoan porin [9] = experiment: Human subjects envenomated by a cubozoan porin, intravenous zinc gluconate (Example 8); assay type: in vivo; details: IV infusion 2.5 to 4 mg per day
cubozoan porin [10] = experiment: Human subjects envenomated by a cubozoan porin, subcutaneous bolus then continuous IV (Example 9); assay type: in vivo; details: subcutaneous bolus 5 mL of 100 mM, then IV 5 mM
cubozoan porin [11] = experiment: Human subjects envenomated by a cubozoan porin, transdermal patch (Example 10); assay type: in vivo; details: iontophoresis, 5 mM at 40 mAmp/min
bacterial porin = experiment: Human subjects exposed to a bacterial porin, intravenous (Example 11); assay type: in vivo; details: IV 2.5 to 4 mg per day
Procedure: In this Example, human subjects are treated with zinc gluconate intravenously after being exposed to a bacterial porin. […] Samples are removed to monitor levels of potassium, cytokines, histamine, and catecholamine, in the blood serum.

viral porin = experiment: Human subjects exposed to a viral porin, intravenous (Example 12); assay type: in vivo; details: IV 2.5 to 4 mg per day
Procedure: In this Example, human subjects are treated with zinc gluconate intravenously after being exposed to a viral porin. […] Samples are removed to monitor levels of potassium, cytokines, histamine, and catecholamine, in the blood serum.

[12] = test system: mushroom pore-forming toxin; experiment: Human subjects exposed to a mushroom pore-forming toxin, intravenous (Example 13); assay type: in vivo; details: IV 2.5 to 4 mg per day
Procedure: In this Example, human subjects are treated with zinc gluconate intravenously after being exposed to a mushroom pore-forming toxin. […] Samples are removed to monitor levels of potassium, cytokines, histamine, and catecholamine, in the blood serum.

hemolytic toxins = details: 10 mM D-lactulose; cited from earlier work
[13] = mice, Zn Gluc then 2000 U venom IV, cardiac blood at death

## zinc gluconate
[1]
  potassium efflux induced by Carybdea alata venom: fully inhibited
[2]
  potassium efflux induced by Chironex fleckeri venom: fully inhibited
[3]
  potassium efflux induced by Chironex fleckeri venom: inhibited
[4]; 2% RBC, 5 mM zinc gluconate
  hemolysis induced by Carybdea alata venom: substantially inhibited
[4]; venom dose 6.4 U/ml
  decrease of the total hemolytic capacity of the venom dose: more than 10 fold
[5]
  hemolysis induced by Chironex fleckeri venom: substantially less severe hemolysis
[6]
  production of EGF: reduced
  production of G-CSF: reduced
  production of GRO: reduced
  production of IFNα2: reduced
  production of PDGF-AA: reduced
  production of TNFα: reduced
[7]
  catecholamine response: reduced
  histamine response: reduced
Chironex fleckeri venom; Mouse 2010-6-09-2, FIG. 10
  EKG recovery: recovered within thirty seconds
  time of cessation of ventricular contraction: 10.5 min
  time of recovery of ventricular contraction: 11 min
Chironex fleckeri venom; mice pre-injected with zinc gluconate, in three mice
  rebounds of ventricular contraction subsequent to periods of pulseless electrical activity (PEA): frequently observed
Chironex fleckeri venom; [13]
  Hemolysis: 6% and 4% and 2% and 3%
  Plasma Hgb: 860 mg/100 mL and 673 mg/100 mL and 471 mg/100 mL
Chironex fleckeri venom; relative to the untreated mice, FIG. 11
  survival rates: higher survival rates
Chironex fleckeri venom; relative to the untreated mice, intravenous, FIG. 11, P<0.0001
  duration of survival post-envenomation (survival times): longer durations of survival; also recorded: significantly prolonged
Chironex fleckeri venom; zinc treated animals exposed to cubozoan PFT
  normal EKG conductive sequences maintained: for longer periods
Cubozoan porin [8]
  severity of symptoms: reduce the severity of symptoms
  survival: siginificantly improve survival
Cubozoan porin [9]
  likelihood of a lethal outcome: decrease the likelihood a lethal outcome
  severity of physiological symptoms associated with the venom poisoning: reduce the severity of physiological symptoms
Cubozoan porin [10]
  likelihood of a lethal outcome: decrease the likelihood a lethal outcome
  severity of physiological symptoms associated with the venom poisoning: reduce the severity of physiological symptoms
Cubozoan porin [11]
  likelihood of a lethal outcome: decrease the likelihood a lethal outcome
  severity of physiological symptoms associated with the venom poisoning: reduce the severity of physiological symptoms
Bacterial porin
  health of the subject: improve the health of the subject
  severity of physiological symptoms associated with porin exposure: reduce the severity of physiological symptoms
Viral porin
  health of the subject: improve the health of the subject
  severity of physiological symptoms associated with porin exposure: reduce the severity of physiological symptoms
[12]
  health of the subject: improve the health of the subject
  severity of physiological symptoms associated with porin exposure: reduce the severity of physiological symptoms

## OC[C@H]1O[C@@H](O[C@@H]2[C@@H](CO)O[C@](O)(CO)[C@H]2O)[C@H](O)[C@@H](O)[C@H]1O [D-lactulose]
Hemolytic toxins
  Hemolysis: dramatic absence of hemolysis
